From article PMC12543186, “Discovery of C-12 dithiocarbamate andrographolide analogue as a novel antioxidant and α-glucosidase inhibitors: In vitro and in silico studies” (PLOS One, 2025)
“And” between values parts separate entries of the source, which are not always exact repeats. Identical values can stand only once. Like-named read-outs stand apart in the source and are kept apart here.

Experiments:
[1] = biological target: T1, α-glucosidase from Saccharomyces cerevisiae (Saccharomyces cerevisiae, UniProt P38158); assay: α-glucosidase inhibition activity (p-NPG substrate); format: biochemical
Procedure: An in vitro α-glucosidase inhibitory assay is commonly used to evaluate the inhibitory effects of various compounds on the enzyme α-glucosidase, which is involved in carbohydrate digestion. Inhibiting this enzyme results in slower glucose absorption, which can be beneficial for managing postprandial blood sugar levels in diabetic conditions. This assay was modified from the methods described by Yusuf et al.. The procedure involved mixing 25 μL of the sample, 150 μL of phosphate buffer saline (PBS) pH 7.4, and 75 μL of 10 mM p-NPG. The mixture was incubated at 37 °C for 10 min. Next, 50 μL of α-glucosidase enzyme from Saccharomyces cerevisiae at a concentration of 0.1 U/mL was added, then incubated at 37 °C for 10 min. To terminate the reaction, […] of 0.1 M sodium carbonate (Na2CO3) was added to the mixture. The absorbance was measured using a microplate reader. The percentage of α-glucosidase inhibition was calculated as follows:
α−glucosidase inhibition(%)=(1–{A−B/C−D})×100
Where A was the absorbance of the sample with α-glucosidase enzyme, B was the absorbance of the sample, C was the absorbance of vehicle with α-glucosidase enzyme, and D was the absorbance of the vehicle (blank).

[2] = DPPH radical scavenging activity; settings: for IC50: 200 μM DPPH solution
Procedure: The DPPH radical scavenging activity was conducted to thoroughly evaluate the antioxidant potential of andrographolide and its analogues. We modified the assay employing the Sekhon-Loodu and Rupasinghe methods. A DPPH solution was prepared in absolute ethanol, with a concentration of 200 μM. Next, 100 μL of DPPH solution was mixed with 100 μL of the sample in a 96-well plate. The mixture was then incubated for 30 minutes at room temperature. Following incubation, we measured the absorbance at 517 nm using a microplate reader. We tested the antioxidant properties of the compounds at a concentration of 500 μM to detect the weak-to-moderate antioxidants while addressing solubility limitations and minimizing assay artefacts, consistent with previous research. The DPPH radical scavenging activity was precisely expressed as a percentage of DPPH inhibition (% DPPH Inhibition). We selected candidates based on their higher inhibitory activity and prepared various concentrations of these candidates for testing. α-tocopherol, also known as vitamin E, was employed as a positive control. The % DPPH Inhibition was calculated as follows:
%DPPH Inhibition=(1–{A/B})×100
Where A was the absorbance of the DPPH with sample, and B was the absorbance of the DPPH with vehicle (blank).

[3] = Ferric reducing antioxidant power (FRAP) activity
Procedure: The FRAP activity assay was performed to assess the reducing power ability to reduce ferric ions (Fe^3+) to ferrous ions (Fe^2+), following the established method described by Sekhon-Loodu and Rupasinghe. The FRAP reagent was freshly prepared by combining 300 mM acetate buffer pH 3.6, 10 mM 2,4,6- Tri(2-pyridyl)-s-triazine (TPTZ) dissolved in 40 mM HCl, and 20 mM FeCl3 in a ratio of 10:1:1. Ferrous sulfate (FeSO4) was used as a standard, with ascorbic acid serving as a control. The assay was conducted in a 96-well plate by mixing 20 μL of the sample, standard, or positive control with 80 μL of the FRAP solution. The mixture was then incubated for 20 minutes at room temperature, after which we measured absorbance at 595 nm using a microplate reader. The results were expressed as FRAP value, reported as ascorbic acid equivalent in μM (AAE, μM), providing a definitive measure of reducing power.

[4] = biological target: T1, α-glucosidase from Saccharomyces cerevisiae; assay: Surface plasmon resonance, steady-state affinity; format: binding
Procedure: All experiments were conducted using a Biacore X100 instrument at 25 °C with a running buffer of 1X PBS-P+ (10 mM phosphate buffer pH 7.4, 2.7 mM KCl, 137 mM NaCl, 0.05% Tween 20) supplemented with 5% DMSO. Compounds were initially dissolved in DMSO to a final concentration of 14 mM. The stock solution was then diluted to 700 μM in 1.05X PBS-P+ to prepare a compound solution containing 1X PBS-P+ with 5% DMSO. This compound solution was utilized to prepare the required concentrations for injections into the Biacore system. α-glucosidase from Saccharomyces cerevisiae was immobilized onto a CM5 chip following standard amine coupling procedures: the CM5 chip, containing channel 1 and 2, was activated with an injection of NHS/EDC mixture with a contact time of 540 s at a flow rate of 10 µL/min. This was followed by multiple injections of α-glucosidase dissolved in 10 mM sodium acetate pH 4.0 (50 µg/mL) onto channel 2, also with a contact time of 540 s at a flow rate of 10 µL/min. Both channels were inactivated by an injection of 1M ethanolamine at a flow rate of 10 µL/min for 540 s. An immobilization level of 3300 RU of α-glucosidase was achieved.
Multi-cycle affinity studies were conducted with a 100 s association phase and a 60 s dissociation phase, using a flow rate of 30 µL/min. Compounds were injected onto the chip at increasing concentrations of 7, 21, 70, 210, and 490 μM. Binding measurements were taken after reference subtraction of channel 1 (no immobilized α-glucosidase) and after subtracting the results from a blank injection with zero analyte concentration. All data evaluation was performed with Biacore X100 evaluation software (version 2.0).

[5] = 500 μM, second replicate column

T1 sequence (P38158 whole entry): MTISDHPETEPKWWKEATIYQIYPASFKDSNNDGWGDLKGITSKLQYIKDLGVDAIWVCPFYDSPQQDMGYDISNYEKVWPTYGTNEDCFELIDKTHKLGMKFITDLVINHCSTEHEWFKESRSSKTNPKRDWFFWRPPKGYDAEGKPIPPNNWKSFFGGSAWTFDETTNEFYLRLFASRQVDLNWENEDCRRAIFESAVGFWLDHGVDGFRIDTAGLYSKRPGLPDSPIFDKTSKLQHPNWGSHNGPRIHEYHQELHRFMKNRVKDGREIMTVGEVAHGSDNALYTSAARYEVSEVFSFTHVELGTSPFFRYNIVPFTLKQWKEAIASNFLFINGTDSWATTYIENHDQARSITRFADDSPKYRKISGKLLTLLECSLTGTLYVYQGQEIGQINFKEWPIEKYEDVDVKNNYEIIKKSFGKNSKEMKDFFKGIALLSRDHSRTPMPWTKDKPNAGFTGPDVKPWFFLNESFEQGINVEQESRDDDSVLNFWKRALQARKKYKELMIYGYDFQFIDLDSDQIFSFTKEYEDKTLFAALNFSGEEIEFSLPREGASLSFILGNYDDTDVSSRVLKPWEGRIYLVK

For `C=C1CCC2C(C)(COC(C)=O)C(OC(C)=O)CCC2(C)C1CC(SC(=S)N1CCN(c2ccc(O)cc2)CC1)C1=CCOC1=O` (centres unmarked) [compound 3f], the IC50 ([1]; IC50 (α-glucosidase inhibitory activity), concentration range up to 2000 μM) was 411 µM and ~411 µM, the inhibition at 31.2 µM ([1]; read-out: α-glucosidase inhibition (%), Mean, 31.2 μM) was -0.49% and the inhibition at 62.5 µM ([1]; read-out: α-glucosidase inhibition (%), Mean, 62.5 μM) was 5.53%. For the same molecule, the inhibition at 125 µM ([1]; read-out: α-glucosidase inhibition (%), Mean, 125 μM) was 15.2%, the inhibition at 250 µM ([1]; read-out: α-glucosidase inhibition (%), Mean, 250 μM) was 26.6% and the inhibition at 500 µM ([1]; read-out: α-glucosidase inhibition (%), Mean, 500 μM) was 56.3%. For the same molecule, the inhibition at 1000 µM ([1]; read-out: α-glucosidase inhibition (%), Mean, 1000 μM) was 78%, the inhibition at 2000 µM ([1]; read-out: α-glucosidase inhibition (%), Mean, 2000 μM) was 81.9% and the inhibition at 31.2 µM ([1]; read-out: α-glucosidase inhibition (%), replicate 1, 31.2 μM, first replicate column) was 3.15%. It also gave an inhibition at 62.5 µM ([1]; read-out: α-glucosidase inhibition (%), replicate 1, 62.5 μM, first replicate column) of 5.24%, an inhibition at 125 µM ([1]; read-out: α-glucosidase inhibition (%), replicate 1, 125 μM, first replicate column) of 19.1% and an inhibition at 250 µM ([1]; read-out: α-glucosidase inhibition (%), replicate 1, 250 μM, first replicate column) of 28.2%. It also gave an inhibition at 500 µM ([1]; read-out: α-glucosidase inhibition (%), replicate 1, 500 μM, first replicate column) of 59.3%, an inhibition at 1000 µM ([1]; read-out: α-glucosidase inhibition (%), replicate 1, 1000 μM, first replicate column) of 78.6% and an inhibition at 2000 µM ([1]; read-out: α-glucosidase inhibition (%), replicate 1, 2000 μM, first replicate column) of 81.9%. For the same molecule, the inhibition at 31.2 µM ([1]; read-out: α-glucosidase inhibition (%), replicate 2, 31.2 μM, second replicate column) was -1.2%, the inhibition at 62.5 µM ([1]; read-out: α-glucosidase inhibition (%), replicate 2, 62.5 μM, second replicate column) was 7.4% and the inhibition at 125 µM ([1]; read-out: α-glucosidase inhibition (%), replicate 2, 125 μM, second replicate column) was 17.6%. It also gave an inhibition at 250 µM ([1]; read-out: α-glucosidase inhibition (%), replicate 2, 250 μM, second replicate column) of 28.1%, an inhibition at 500 µM ([1]; read-out: α-glucosidase inhibition (%), replicate 2, 500 μM, second replicate column) of 57.1% and an inhibition at 1000 µM ([1]; read-out: α-glucosidase inhibition (%), replicate 2, 1000 μM, second replicate column) of 78%. It also gave an inhibition at 2000 µM ([1]; read-out: α-glucosidase inhibition (%), replicate 2, 2000 μM, second replicate column) of 81.9%, an inhibition at 31.2 µM ([1]; read-out: α-glucosidase inhibition (%), replicate 3, 31.2 μM, third replicate column) of -3.42% and an inhibition at 62.5 µM ([1]; read-out: α-glucosidase inhibition (%), replicate 3, 62.5 μM, third replicate column) of 3.94%. For the same molecule, the inhibition at 125 µM ([1]; read-out: α-glucosidase inhibition (%), replicate 3, 125 μM, third replicate column) was 8.93%, the inhibition at 250 µM ([1]; read-out: α-glucosidase inhibition (%), replicate 3, 250 μM, third replicate column) was 23.5% and the inhibition at 500 µM ([1]; read-out: α-glucosidase inhibition (%), replicate 3, 500 μM, third replicate column) was 52.6%. The inhibition at 1000 µM ([1]; read-out: α-glucosidase inhibition (%), replicate 3, 1000 μM, third replicate column) was 77.3%, the inhibition at 2000 µM ([1]; read-out: α-glucosidase inhibition (%), replicate 3, 2000 μM, third replicate column) was 82% and the IC50 [2] was roughly 25 µM. For the same molecule, the “% Inhibition (DPPH), replicate 1” value ([2]; 500 μM, first replicate column) was 85.7465%, the “% DPPH Inhibition, Mean” value ([2]; 500 μM, mean of n = 3) was 84% and 84.47 ± 1.14% and 84.4719% and the “% Inhibition (DPPH), replicate 2” value [2, 5] was 83.5328%. The “% Inhibition (DPPH), replicate 3” value ([2]; 500 μM, third replicate column) was 84.1364%, the “FRAP, Ascorbic acid equivalent, replicate 1” value ([3]; 500 μM, first replicate column) was 109.9203 AAE, μM and the “FRAP, Ascorbic acid equivalent, replicate 2” value [3, 5] was 87.9587 AAE, μM. For the same molecule, the “FRAP, Ascorbic acid equivalent, replicate 3” value ([3]; 500 μM, third replicate column) was 67.0175 AAE, μM, the FRAP activity ([3]; 600 μM) was 253.90 ± 47.40 AAE and the Kd [4] was 12.9 µM. The “fold stronger affinity than andrographolide” value ([4]; from SPR KD values) was “approximately 10 fold”.

In the case of `Cc1c(C)c2c(c(C)c1O)CC[C@@](C)(CCC[C@H](C)CCC[C@H](C)CCCC(C)C)O2` [α-tocopherol], the IC50 [2] is reported as roughly 25 µM.
